# Data: patent US10858335B2 (Rigel Pharmaceuticals, Inc., priority 2014, dated 2020)
# Tested on: GDF8 signaling (p-SMAD-3 (Ser423/425))
# Assay: AlphaScreen SureFire SMAD3 (p-Ser423/425) assay, GDF8-stimulated cells (GDF pSMAD)
# Format: cell-based
# Conditions: Mus musculus, MPC-11, GDF8-stimulated pSMAD3, MPC11; tested as the salt form given; read-out: GDF pSMAD (MPC11) (μM), inhibition of GDF8 signaling
row,SMILES,IC50 [µM]
1,"Cc1cc(-c2ncccc2-c2ccc3ncnc(NCC(N)=O)c3c2)ccc1F [compound 1026, 2-((6-(2-(4-fluoro-3-methylphenyl)pyridin-3-yl)quinazolin-4-yl)amino)acetamide]",0.737
2,"Nc1ncnc2ccc(-c3cc(F)cnc3-c3ccc(F)c(Cl)c3)cc12 [compound 998, 6-(2-(3-chloro-4-fluorophenyl)-5-fluoropyridin-3-yl)quinazolin-4-amine]",2.44
3,"Fc1cc(F)c(F)c(-c2ncccc2-c2ccn3nccc3n2)c1 [compound 1052, 6-(2-(4-Fluoro-2,5-dimethylphenyl)pyridin-3-yl)-[,2,4]triazolo[1,5-a]pyridine]",3.61
4,"Cc1cc(F)c(C(F)F)cc1-c1ncccc1-c1ccc2ncnc(N)c2c1 [compound 1025, 6-(2-(5-(difluoromethyl)-4-fluoro-2-methylphenyl)pyridin-3-yl)quinazolin-4-amine]",0.958
5,Cc1cc(F)c(O)cc1-c1ncccc1-c1ccc2ncnc(N)c2c1 [compound 1019],7.43
6,"COc1ccc(C)c(-c2ncccc2-c2ccc3ncnc(N)c3c2)c1 [compound 1015, 6-(2-(5-methoxy-2-methylphenyl)pyridin-3-yl)quinazolin-4-amine]",6.95
7,"Cc1cc(-c2ncccc2-c2ccc3ncnc(NCCC(N)=O)c3c2)ccc1F [compound 1029, 3-((6-(2-(4-fluoro-3-methylphenyl)pyridin-3-yl)quinazolin-4-yl)amino)propanamide]",2.61

# Same assay, conditions: Mus musculus, MPC-11, MPC11; GDF8-stimulated; p-SMAD3 AlphaScreen; read-out: GDF pSMAD (MPC11) (inhibition of GDF8 signaling)
row,SMILES,IC50 [µM]
1,"COc1ccc(F)c(-c2ncccc2-c2ccc3ncnc(N)c3c2)c1 [compound 473, 6-(2-(2-Fluoro-5-methoxyphenyl)pyridin-3-yl)quinazolin-4-amine]",0.292
2,"CC(=O)c1cnc2ccc(-c3cccnc3-c3ccc(F)c(C)c3)cn12 [compound 586, 1-(6-(2-(4-Fluoro-3-methylphenyl)pyridin-3-yl)imidazo[1,2-a]pyridin-3-yl)ethan-1-one]",0.617
3,"COc1cc(-c2ncccc2-c2ccc3[nH]ncc3c2)ccc1F [Compound 124, 5-(2-(4-Fluoro-3-methoxyphenyl)pyridin-3-yl)-1H-indazole]",0.548
4,"COc1cc(NC(=O)c2cnc3ccc(-c4cccnc4-c4cccc(C(F)(F)F)c4)cn23)cc(OC)c1OC [compound 576, 6-(2-(3-(Trifluoromethyl)phenyl)pyridin-3-yl)-N-(3,4,5-trimethoxyphenyl)imidazo[1,2-a]pyridine-3-carboxamide]",3.69
5,"Cc1cc(-c2ncccc2-c2ccn3ncc(C#N)c3n2)ccc1F [compound 901, 5-(2-(4-Fluoro-3-methylphenyl)pyridin-3-yl)pyrazolo[1,5-a]pyrimidine-3-carbonitrile]",1.06
6,"Cc1cnc2ccc(-c3cccnc3-c3cccc(C4CC4)c3)cn12 [compound 529, 6-(2-(3-Cyclopropylphenyl)pyridin-3-yl)-3-methylimidazo[1,2-a]pyridine]",0.323
7,"COc1cc(CNc2cnc(-c3ccc(F)c(C)c3)c(-c3ccc4ncsc4c3)c2)ccc1O [compound 351, 4-(((5-(Benzo[d]thiazol-6-yl)-6-(4-fluoro-3-methylphenyl)pyridin-3-yl)amino)methyl)-2-methoxyphenol]",0.215
8,"Cc1cccc(-c2nc(N)ccc2-c2ccc3ncsc3c2)c1 [Compound 29, 5-(Benzo[d]thiazol-6-yl)-6-m-tolylpyridin-2-amine]",1.45
9,"Cn1cnc2ccc(-c3cccnc3-c3cccc(C4CC4)c3)cc2c1=O [compound 342, 6-(2-(3-Cyclopropylphenyl)pyridin-3-yl)-3-methylquinazolin-4(3H)-one]",0.106
10,"Cc1cc(-c2ncccc2-c2ccc3ncc(C(=O)Nc4cccc(C(N)=O)c4)n3c2)ccc1F [compound 619, N-(3-Carbamoylphenyl)-6-(2-(4-fluoro-3-methylphenyl)pyridin-3-yl)imidazo[1,2-a]pyridine-3-carboxamide]",0.544
11,"Cc1cc(-c2ncccc2-c2ccc3ncnc(Nc4ccc(C#N)cc4)c3c2)ccc1F [compound 409, 4-((6-(2-(4-Fluoro-3-methylphenyl)pyridin-3-yl)quinazolin-4-yl)amino)benzonitrile]",7.95
12,"Cc1cc(-c2ncccc2-c2ccn3c(C(=O)NCCCN(C)C)ncc3c2)ccc1F [compound 267, N-(3-(Dimethylamino)propyl)-7-(2-(4-fluoro-3-methylphenyl)pyridin-3-yl)imidazo[1,5-a]pyridine-3-carboxamide]",6.76
13,"Cc1cc(-c2ncc(NCc3cccc(O)c3)cc2-c2ccc3ncsc3c2)ccc1F [compound 332, 3-(((5-(Benzo[d]thiazol-6-yl)-6-(4-fluoro-3-methylphenyl)pyridin-3-yl)amino)methyl)phenol]",0.311
14,"Cn1cnc2ccc(-c3cccnc3-c3cccc(O)c3)cc2c1=O [compound 379, 6-(2-(3-Hydroxyphenyl)pyridin-3-yl)-3-methylquinazolin-4(3H)-one]",0.395
15,"Cc1cccc(-c2ncccc2-c2ccc3ncn(C)c(=O)c3c2)c1 [compound 341, 3-Methyl-6-(2-(m-tolyl)pyridin-3-yl)quinazolin-4(3H)-one]",0.26
16,"N#Cc1cccc(-c2ncccc2-c2ccc3nccn3c2)c1 [Compound 51, 3-(3-(Imidazo[1,2-a]pyridin-6-yl)pyridin-2-yl)benzonitrile]",5.44
17,"Nc1ncnc2ccc(-c3cccnc3-c3cc(Cl)ccc3Cl)cc12 [compound 501, 6-(2-(2,5-Dichlorophenyl)pyridin-3-yl)quinazolin-4-amine]",0.355
18,"Cc1cc(-c2ncccc2-c2ccn3ncc(C(=O)N[C@H]4CN5CCC4CC5)c3c2)ccc1F [compound 793, (R)-5-(2-(4-Fluoro-3-methylphenyl)pyridin-3-yl)-N-(quinuclidin-3-yl)pyrazolo[1,5-a]pyridine-3-carboxamide]",2.08

row,SMILES,IC50 [µM]
1,"COc1ncnc2ccc(-c3cccnc3-c3cccc(C4CC4)c3)cc12 [compound 377, 6-(2-(3-Cyclopropylphenyl)pyridin-3-yl)-4-methoxyquinazoline]",0.172
2,"Cc1cc(-c2ncccc2-c2ccc3cnc(C(=O)NCCN4CCOCC4)n3c2)ccc1F [compound 271, 6-(2-(4-Fluoro-3-methylphenyl)pyridin-3-yl)-N-(2-morpholinoethyl)imidazo[1,5-a]pyridine-3-carboxamide]",4.44
3,"Cc1cn2cc(-c3cccnc3-c3ccc(F)c(C)c3)ccc2n1 [compound 531, 6-(2-(4-Fluoro-3-methylphenyl)pyridin-3-yl)-2-methylimidazo[1,2-a]pyridine]",11.2
4,"CCN(CC)c1ncnc2ccc(-c3cccnc3-c3cccc(O)c3)cc12 [compound 399, 3-(3-(4-(Diethylamino)quinazolin-6-yl)pyridin-2-yl)phenol]",4.65
5,"Cc1cc(-c2ncccc2-c2ccn3c(C(=O)NCCCn4ccnc4)ncc3c2)ccc1F [compound 277, N-(3-(1H-Imidazol-1-yl)propyl)-7-(2-(4-fluoro-3-methylphenyl)pyridin-3-yl)imidazo[1,5-a]pyridine-3-carboxamide]",1.67
6,"Fc1ccc(-c2ncccc2-c2ccc3ncnn3c2)cc1C1CC1 [compound 217, 6-(2-(3-Cyclopropyl-4-fluorophenyl)pyridin-3-yl)-[1,2,4]triazolo[1,5-a]pyridine]",0.841
7,"Cc1cnc2ccc(-c3cccnc3-c3cc(Cl)c(F)cc3F)cn12 [compound 766, 6-(2-(5-Chloro-2,4-difluorophenyl)pyridin-3-yl)-3-methylimidazo[1,2-a]pyridine]",0.105
8,"Nc1ncnc2ccc(-c3cccnc3-c3cccc(C4CC4)c3)cc12 [compound 411, 6-(2-(3-Cyclopropylphenyl)pyridin-3-yl)quinazolin-4-amine]",0.0725
9,"Fc1ccc(-c2ncccc2-c2ccn3nccc3c2)cc1Cl [compound 758, 5-(2-(3-Chloro-4-fluorophenyl)pyridin-3-yl)pyrazolo[1,5-a]pyridine]",0.426
10,"Cc1cc(-c2ncccc2-c2ccc3ncnc(NCCC4CCN(C)CC4)c3c2)ccc1F [compound 422, 6-(2-(4-Fluoro-3-methylphenyl)pyridin-3-yl)-N-(2-(1-methylpiperidin-4-yl)ethyl)quinazolin-4-amine]",1.28
11,"Fc1cc(F)c(-c2ncccc2-c2ccn3nccc3n2)cc1Cl [compound 918, 5-(2-(5-Chloro-2,4-difluorophenyl)pyridin-3-yl)pyrazolo[1,5-a]pyrimidine]",0.206
12,"Nc1cccc(-c2ncccc2-c2ccc3[nH]ncc3c2)c1 [Compound 75, 5-(2-(3-Aminophenyl)pyridin-3-yl)-1H-indazole]",3.47
13,"Cc1cc(-c2ncc(-c3cn[nH]c3)cc2-c2ccc3ncsc3c2)ccc1F [compound 345, 6-(2-(4-Fluoro-3-methylphenyl)-5-(1H-pyrazol-4-yl)pyridin-3-yl)benzo[d]thiazole]",4.83
14,"CC(=O)c1cnc2ccc(-c3cccnc3-c3cccc(C(F)(F)F)c3)cn12 [compound 589, 1-(6-(2-(3-(Trifluoromethyl)phenyl)pyridin-3-yl)imidazo[1,2-a]pyridin-3-yl)ethan-1-one]",1.22
15,"N#Cc1cnc2ccc(-c3cccnc3-c3cccc(C(F)(F)F)c3)cn12 [compound 560, 6-(2-(3-(Trifluoromethyl)phenyl)pyridin-3-yl)imidazo[1,2-a]pyridine-3-carbonitrile]",2.48
16,"Fc1cc(F)c(-c2ncccc2-c2ccn3nccc3c2)cc1Cl [compound 760, 5-(2-(5-Chloro-2,4-difluorophenyl)pyridin-3-yl)pyrazolo[1,5-a]pyridine]",0.274
17,"Cc1cc(-c2ncccc2-c2ccn3cncc3c2)ccc1F [compound 594, 7-(2-(4-Fluoro-3-methylphenyl)pyridin-3-yl)imidazo[1,5-a]pyridine]",0.57
18,"COc1cnc(-c2ccc(F)c(C)c2)c(-c2ccn3ncnc3c2)c1 [compound 854, 7-(2-(4-Fluoro-3-methylphenyl)-5-methoxypyridin-3-yl)-[1,2,4]triazolo[1,5-a]pyridine]",4.67
